Laboratory results: ChEMBL document CHEMBL3259695 (J Med Chem, 2014)

Columns and labels:
[1] = Displacement of [3H]SCH 23390 from dopamine D1-like receptor in Sprague-Dawley rat caudate putamen after 90 mins; type: tissue-based
D(3) dopamine receptor [2] = biological target: D(3) dopamine receptor (Rattus norvegicus, UniProt P19020); assay: Displacement of [3H]R-(+)-7-OHDPAT from dopamine D3 receptor in Sprague-Dawley rat ventral striatum after 90 mins
Rattus norvegicus [3] = organism: Rattus norvegicus; assay: Selectivity ratio of Ki for dopamine D1-like receptor in Sprague-Dawley rat caudate putamen to Ki for dopamine D3 receptor in Sprague-Dawley rat ventral striatum; type: tissue-based
D(2) dopamine receptor [4] = biological target: D(2) dopamine receptor (Rattus norvegicus, UniProt P61169); assay: Displacement of [3H]Spiperone from dopamine D2-like receptor in Sprague-Dawley rat caudate putamen after 90 mins; type: tissue-based
Sequence of D(2) dopamine receptor (Rattus norvegicus, UniProt P61169) (P61169 whole entry): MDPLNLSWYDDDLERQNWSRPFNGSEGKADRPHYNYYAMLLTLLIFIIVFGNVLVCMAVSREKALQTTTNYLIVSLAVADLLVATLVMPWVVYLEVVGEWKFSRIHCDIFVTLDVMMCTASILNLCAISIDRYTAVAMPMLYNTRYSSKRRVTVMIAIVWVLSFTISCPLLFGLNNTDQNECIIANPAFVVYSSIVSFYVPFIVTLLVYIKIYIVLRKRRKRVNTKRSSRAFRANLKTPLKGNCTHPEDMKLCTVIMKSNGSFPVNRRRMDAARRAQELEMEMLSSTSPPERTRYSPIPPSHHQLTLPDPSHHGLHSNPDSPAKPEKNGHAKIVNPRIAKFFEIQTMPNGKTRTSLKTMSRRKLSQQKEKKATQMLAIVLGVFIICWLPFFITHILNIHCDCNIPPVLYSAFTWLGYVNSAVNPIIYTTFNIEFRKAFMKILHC

D(3) dopamine receptor [5] = biological target: T1, D(3) dopamine receptor (Homo sapiens, UniProt P35462); assay: Displacement of [3H]N-methylspiperone from human dopamine D3 receptor expressed in HEK293 cells after 1 hr by liquid scintillation counting analysis; type: cell-based
T1 sequence (P35462 whole entry): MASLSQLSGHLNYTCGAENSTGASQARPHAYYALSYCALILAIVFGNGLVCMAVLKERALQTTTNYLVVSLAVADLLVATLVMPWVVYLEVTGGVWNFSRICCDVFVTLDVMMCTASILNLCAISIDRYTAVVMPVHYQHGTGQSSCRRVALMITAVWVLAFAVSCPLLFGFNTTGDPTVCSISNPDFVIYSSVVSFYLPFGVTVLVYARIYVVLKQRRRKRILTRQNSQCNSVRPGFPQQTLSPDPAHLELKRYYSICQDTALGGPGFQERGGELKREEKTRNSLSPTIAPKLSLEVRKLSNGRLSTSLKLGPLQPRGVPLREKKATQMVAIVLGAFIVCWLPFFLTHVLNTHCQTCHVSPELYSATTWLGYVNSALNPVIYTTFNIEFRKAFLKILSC

Rattus norvegicus [6] = organism: Rattus norvegicus; assay: Selectivity ratio of Ki for dopamine D2-like receptor in Sprague-Dawley rat caudate putamen to Ki for dopamine D3 receptor in Sprague-Dawley rat ventral striatum; type: tissue-based
D(2) dopamine receptor [7] = biological target: D(2) dopamine receptor (Homo sapiens, UniProt P14416); assay: Displacement of [3H]N-methylspiperone from human dopamine D2 receptor expressed in HEK293 cells after 1 hr by liquid scintillation counting analysis; type: cell-based
Sequence of D(2) dopamine receptor (Homo sapiens, UniProt P14416) (P14416 whole entry): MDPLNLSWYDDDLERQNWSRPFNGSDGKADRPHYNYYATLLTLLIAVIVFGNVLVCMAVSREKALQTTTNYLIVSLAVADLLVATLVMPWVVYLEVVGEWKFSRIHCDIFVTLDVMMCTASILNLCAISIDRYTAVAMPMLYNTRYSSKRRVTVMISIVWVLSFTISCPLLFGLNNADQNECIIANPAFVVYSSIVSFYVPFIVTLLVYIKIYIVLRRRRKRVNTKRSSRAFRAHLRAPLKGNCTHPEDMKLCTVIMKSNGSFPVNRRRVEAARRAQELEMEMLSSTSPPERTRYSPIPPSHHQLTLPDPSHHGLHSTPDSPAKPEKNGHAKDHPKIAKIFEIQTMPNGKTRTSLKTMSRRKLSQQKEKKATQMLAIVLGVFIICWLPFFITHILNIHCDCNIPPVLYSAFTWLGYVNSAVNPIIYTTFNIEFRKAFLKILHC

D(3) dopamine receptor [8] = biological target: T1, D(3) dopamine receptor; details: U2OS
D(3) dopamine receptor [9] = biological target: T1, D(3) dopamine receptor

Sequence of D(3) dopamine receptor (Rattus norvegicus, UniProt P19020) (P19020 whole entry): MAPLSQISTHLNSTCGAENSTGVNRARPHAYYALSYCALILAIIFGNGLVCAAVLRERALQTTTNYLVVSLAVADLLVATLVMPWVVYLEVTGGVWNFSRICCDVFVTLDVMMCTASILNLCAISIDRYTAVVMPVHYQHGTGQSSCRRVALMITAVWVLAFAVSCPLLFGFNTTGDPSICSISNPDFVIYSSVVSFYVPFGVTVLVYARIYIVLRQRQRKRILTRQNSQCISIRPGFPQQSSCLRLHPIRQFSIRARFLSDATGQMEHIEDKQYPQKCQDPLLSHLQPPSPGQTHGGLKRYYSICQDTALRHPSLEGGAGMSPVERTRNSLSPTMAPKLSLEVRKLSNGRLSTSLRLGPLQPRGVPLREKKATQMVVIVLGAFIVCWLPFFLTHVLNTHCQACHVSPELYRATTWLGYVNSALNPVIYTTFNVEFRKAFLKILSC

Row | SMILES | Ki [1] [nM] | Ki (D(3) dopamine receptor [2]) [nM] | Ratio Ki (Rattus norvegicus [3]) | Ki (D(2) dopamine receptor [4]) [nM] | Ratio Ki (Rattus norvegicus [6]) | other results
1 | Cc1ncoc1-c1nnc(SCCCN2CC3CC3(c3ccc(C(F)(F)F)cc3F)C2)n1C (stereo not drawn) | 38800 | 46 | – | – | – | –
2 | CCCN(CC[C@]1(O)C[C@@H](NC(=O)c2ccc3ccccc3c2)C1)[C@H]1C[C@@H]1c1cccc(Cl)c1 (racemic) | 1800 | – | 64 | > 300000 | – | –
3 | CCN1CCC[C@H]1CNC(=O)c1c(O)c(Cl)cc(Cl)c1OC [RACLOPRIDE] | – | – | – | – | – | Ki (D(3) dopamine receptor [5]): 13.4 nM
4 | CCCN(CC[C@]1(O)C[C@@H](NC(=O)c2ccc3ccccc3c2)C1)[C@H]1C[C@@H]1c1ccccc1 | 3090 | 108 | 29 | 2140 | 20 | –
5 | CCCN(CC[C@]1(O)C[C@@H](NC(=O)c2ccc3ccccc3c2)C1)[C@H]1C[C@@H]1c1ccc(Cl)cc1 | 20700 | 457 | – | > 100000 | – | –
6 | CCc1cc(Cl)c(OC)c(C(=O)NC[C@@H]2CCCN2CC)c1O [ETICLOPRIDE] | – | – | – | – | – | Ki (D(2) dopamine receptor [7]): 0.086 nM
7 | CCCN(CC[C@]1(O)C[C@@H](NC(=O)c2ccc3ccccc3c2)C1)[C@H]1C[C@@H]1c1ccccc1Cl (racemic) | 743 | – | 39 | – | 26 | –
8 | N[C@@H]1C[C@H]1c1ccccc1.N[C@H]1C[C@@H]1c1ccccc1 (racemic) [TRANYLCYPROMINE] | – | – | – | 58700 | – | –
9 | CCCN[C@H]1CCc2nc(N)sc2C1 | – | – | – | – | – | ED50 (D(3) dopamine receptor [8]): 3.7 nM
10 | CCCN[C@H]1C[C@@H]1c1ccccc1 | 123000 | 1170 | 105 | 95600 | 82 | –
11 | CCCN(CC[C@]1(O)C[C@@H](NC(=O)c2ccc3ccccc3c2)C1)C1CC1c1ccc(Cl)cc1 (mixture of isomers) | 2200 | – | – | – | – | –
12 | CCCN(CC[C@]1(O)C[C@@H](NC(=O)c2ccc3ccccc3c2)C1)[C@@H]1C[C@H]1c1ccccc1 | 2820 | 44 | 64 | 1310 | 30 | –
13 | CCCN[C@@H]1C[C@H]1c1ccccc1 | 90600 | 1200 | 76 | 96600 | 81 | –
14 | CCCN(CC[C@]1(O)C[C@@H](NC(=O)c2ccc3ccccc3c2)C1)[C@@H]1C[C@H]1c1ccc(Cl)cc1 | 25800 | 2.7 | – | > 300000 | – | ED50 (D(3) dopamine receptor [8]): > 100000 nM; Ki (D(2) dopamine receptor [7]): 623 nM; Ki (D(3) dopamine receptor [5]): 2.8 nM; IC50 (D(3) dopamine receptor [9]): 327 nM
